Literature values, collected in PMC6606825 (Journal of Ginseng Research, 2018).

Test system: P-gp
Details: in vitro and in situ; cited from earlier work

| SMILES | P-gp inhibition |
| --- | --- |
| CC(C)=CCC[C@](C)(O)[C@H]1CC[C@]2(C)[C@@H]1[C@H](O)C[C@@H]1[C@@]3(C)CC[C@H](O)C(C)(C)[C@@H]3CC[C@]12C [20(S)-PPD, 20(S)-protopanaxadiol] | inhibit P-gp |
| CC(C)=CCC[C@](C)(O[C@@H]1O[C@H](CO)[C@@H](O)[C@H](O)[C@H]1O)[C@H]1CC[C@]2(C)[C@@H]1[C@H](O)C[C@@H]1[C@@]3(C)CC[C@H](O)C(C)(C)[C@@H]3CC[C@]12C [Ginsenoside compound K, 20-O-beta-D-glucopyranosyl-20(S)-protopanaxadiol] | inhibit P-gp |
